{"source": "patent US11377447B2", "about": "“Targeted therapeutics” (MADRIGAL PHARMACEUTICALS, INC., priority 2017, dated 2022)", "assay": "pH of reconstituted and diluted drug product solution", "assay_type": "physicochemical", "conditions": "lyophilized powder reconstituted with Water for Injection", "protocol": "This solution is filled to deliver 105 mg/vial into a container closure system consisting of a USP Type 1 clear glass vial, stopper, and overseal. The drug product is stored at 2° C. to 8° C., away from light. Prior to administration the lyophilized powder is reconstituted with Water for Injection and then is further diluted in 0.9% Sodium Chloride Injection, USP to the target concentration prior to use. SDC-TRAP-0063 Sodium may have a concentration of between about 25 to about 50 mg/mL, between about 50 to about 100 mg/mL, between about 100 to about 150 mg/mL, or between about 150 to 200 mg/mL. The drug product is intended for intravenous administration by infusion.\nThe reconstituted solution of SDC-TRAP-0063 Sodium has a pH of 10.0. This solution is diluted to the target dose in 0.9% sodium chloride injection, USP. The pH of the infusion solution depends on the concentration of SDC-TRAP-0063 Sodium in the diluted infusion solution. Across the dose ranges employed in the clinical study protocol, the volume of the diluted infusion solution administered will range from 50 to 500 mL, and the pH will range from 8.1 to 9.6. In order to reduce the potential risks of injection site pain and/or damage to the venous endothelium during IV administration, a central venous access line is used for administration of the diluted SDC-TRAP-0063 Sodium.", "data": [{"compound": "CCc1c2c(nc3ccc(OC(=O)N4CCC(CCn5ccc6cc(-n7c(O)nnc7-c7cc(C(C)C)c(O)cc7O)ccc65)CC4)cc13)-c1cc([C@@](O)(CC)C(=O)[O-])c(CO)c(=O)n1C2.[Na+]", "note": "[SDC-TRAP-0063 Sodium, Sodium (S)-2-(2-((4-(2-(5-(3-(2,4-dihydroxy-5-isopropylphenyl)-5-hydroxy-4H-1,2,4-triazol-4-yl)-1H-indol-1-yl)ethyl)piperidine-1-carbonyl)oxy)-12-ethyl-8-(hydroxymethyl)-9-oxo-9,11-dihydroindolizino[1,2-b]quinolin-7-yl)-2-hydroxybutanoate]", "values": [{"measurement": "pH of the reconstituted solution", "value": 10.0}]}]}
